Data on 3 compounds can be found in patent US11673889B2, “Substituted imidazo[4,5-c][1,8]naphthyridines as phosphodiesterase inhibitors” (Nanjing Zhengxiang Pharmaceuticals Co., Ltd., priority 2019, dated 2023).

Usually IC50 stands for the point on the concentration scale where inhibition reaches its midpoint. A higher IC50 goes with a need for much substance. As usually defined, the inhibition is the percentage by which the read-out fell short of the control.

Structures are written as SMILES.

The target of one experiment is T1, ENPP-1, MDA-MB-231 cells (Homo sapiens, UniProt P22413).
T1 sequence (P22413 1-925): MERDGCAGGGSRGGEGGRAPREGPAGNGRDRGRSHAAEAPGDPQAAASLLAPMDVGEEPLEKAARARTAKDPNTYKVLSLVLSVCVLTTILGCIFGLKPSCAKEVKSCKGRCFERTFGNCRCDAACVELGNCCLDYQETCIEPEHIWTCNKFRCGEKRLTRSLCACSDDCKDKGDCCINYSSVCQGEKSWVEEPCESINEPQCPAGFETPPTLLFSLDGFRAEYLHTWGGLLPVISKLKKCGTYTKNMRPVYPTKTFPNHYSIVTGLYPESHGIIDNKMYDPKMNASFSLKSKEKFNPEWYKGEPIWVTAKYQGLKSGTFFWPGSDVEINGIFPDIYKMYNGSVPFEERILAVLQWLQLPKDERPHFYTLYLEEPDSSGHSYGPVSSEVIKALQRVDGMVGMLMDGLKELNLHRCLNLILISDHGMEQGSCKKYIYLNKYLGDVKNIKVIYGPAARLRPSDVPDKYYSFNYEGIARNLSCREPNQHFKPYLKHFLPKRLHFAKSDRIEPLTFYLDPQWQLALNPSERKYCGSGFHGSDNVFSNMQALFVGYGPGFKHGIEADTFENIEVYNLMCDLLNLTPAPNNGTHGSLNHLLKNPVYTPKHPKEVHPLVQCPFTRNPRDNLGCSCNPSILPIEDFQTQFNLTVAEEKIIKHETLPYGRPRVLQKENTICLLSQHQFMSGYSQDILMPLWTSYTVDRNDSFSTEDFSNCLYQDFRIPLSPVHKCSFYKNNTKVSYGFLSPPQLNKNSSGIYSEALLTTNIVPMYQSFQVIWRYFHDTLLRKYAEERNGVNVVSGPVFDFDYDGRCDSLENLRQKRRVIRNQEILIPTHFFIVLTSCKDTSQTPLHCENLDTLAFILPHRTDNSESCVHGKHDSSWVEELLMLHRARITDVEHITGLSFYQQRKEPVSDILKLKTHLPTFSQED
Kind of experiment: cell-based. The note with it: for inhibition at 20 µM: MDA-MB-231, read-out: % Inhibition (at 20 μM).

Experiment [1] relates to cGAMP activated THP-1 cells. Kind of experiment: ENPP1 inhibitors screening on cGAMP activated THP-1 cells (IFN-β ELISA). The note with it: THP-1 cells with 2′3′-cGAMP, 24 hours, FIGS. 1A-1E. The experiment is classed as cell-based. On the procedure:
THP-1 cells from bulk cultures were counted and suspended in RPMI 1640, 20% FBS, 2.5 mM L-alanyl-L-glutamine at a concentration of 5.5×10^6 cells/mL. The THP-1 cells were subsequently seeded into 96 well round bottom plates 180 μL/well (1×10^6 cells per well), incubated for 1 hour at 37° C., 5% CO2.
Test compounds were screened in triplicate on THP-1 cells at a final concentration of 10 μM. A working solutions at 0.2 mM. Each well contains 180 μL of THP-1 cell suspension, 10 μL (30 μM, 40 μM or 50 μM) 2′3′-cGAMP (InvivoGen, catalog #tlrl-nacga23) solution (600 μM, 800 μM or 1000 μM) and 10 μL test compound working solution. Incubate for 1 hour.
Vehicle control wells contain 2′3′-cGAMP at concentrations of […] and 50 μM without any test compound. Positive control, 2′3′-cGAMP or 2′,3′-cGAM(PS)2 (Rp/Sp) (InvivoGen, cat #tlrl-nacga2srs) at 40 μM and 80 μM (final concentration).
The final assay volume were 200 μL/well contains: 1) THP-1 cells=180 μL, 2) test compounds=10 μL, 3) 2′3′-cGAMP or 2′3′-cGAM(PS)2 (Rp/Sp) or vehicle control=10 μL.
After incubation for 24 hours at 37° C., 5% CO2, the supernatants were harvested at 200×g for 10 minutes. Cell culture supernatants were then transferred to a clean plate and stored at −80° C. until ready to analyze for IFN-β levels. The IFN-β levels in cell culture supernatants were determined by ELISA kits (PBL Assay Science, catalog #41410) according to the manufacturer's instructions.
The % increase measured for IFN-β in cells treated by the test compounds 12, 48, 89, 103 and 121 relative to that of untreated cells were tested (as shown in FIGS. 1A-1E).

As for `COc1cc2ncc3ncn(Cc4ccc(S(N)(=O)=O)cn4)c3c2cc1OC` [Compound 12, 6-((7,8-dimethoxy-1H-imidazo[4,5-c]quinolin-1-yl)methyl)pyridine-3-sulfonamide], at ENPP-1, MDA-MB-231 cells, half-maximal inhibition (IC50) required 550 nM and the inhibition at 20 µM was 79%. Besides, the “% increase measured for IFN-β relative to that of untreated cells” value in experiment [1] was “potently increased the IFN-β levels at very low concentrations”.
For `COc1ccc2c(ncc3nc(C)n(Cc4ccc(S(N)(=O)=O)cc4)c32)n1` [Compound 48, 4-((7-methoxy-2-methyl-1H-imidazo[4,5-c][1,8]naphthyridin-1-yl)methyl)benzenesulfonamide], in that order: 550 nM, 80% and “potently increased the IFN-β levels at very low concentrations”.
The matching figures for `COc1ccc2c(n1)nc(C)c1nc(C)n(Cc3ccc(S(N)(=O)=O)cn3)c12` [Compound 89, 6-((7-methoxy-2,4-dimethyl-1H-imidazo[4,5-c][1,8]naphthyridin-1-yl)methyl)pyridine-3-sulfonamide]: 410 nM, 78% and “potently increased the IFN-β levels at very low concentrations”.
